The text below walks through data of patent publication US10479784B2, “Substituted pyrazin-2-amines as inhibitors of ATR kinase” (Vertex Pharmaceuticals Incorporated, priority 2008, dated 2019).

By Ki is commonly meant the equilibrium dissociation constant of an inhibitor or competing ligand from its target.

The target of the experiment is full-length ATR (Homo sapiens (Human), UniProt Q13535). As to the kind of experiment: ATR Inhibition Assay (radioactive-phosphate incorporation). The format is biochemical. As to conditions: read-out: ATR Ki. The method, then: Compounds were screened for their ability to inhibit ATR kinase using a radioactive-phosphate incorporation assay. Assays were carried out in a mixture of 50 mM Tris/HCl (pH 7.5), 10 mM MgCl2 and 1 mM DTT. Final substrate concentrations were […] [γ-33P]ATP (3mCi 33P ATP/mmol ATP, Perkin Elmer) and 800 μM target peptide ([…]).
Sequence of full-length ATR (Q13535 whole entry): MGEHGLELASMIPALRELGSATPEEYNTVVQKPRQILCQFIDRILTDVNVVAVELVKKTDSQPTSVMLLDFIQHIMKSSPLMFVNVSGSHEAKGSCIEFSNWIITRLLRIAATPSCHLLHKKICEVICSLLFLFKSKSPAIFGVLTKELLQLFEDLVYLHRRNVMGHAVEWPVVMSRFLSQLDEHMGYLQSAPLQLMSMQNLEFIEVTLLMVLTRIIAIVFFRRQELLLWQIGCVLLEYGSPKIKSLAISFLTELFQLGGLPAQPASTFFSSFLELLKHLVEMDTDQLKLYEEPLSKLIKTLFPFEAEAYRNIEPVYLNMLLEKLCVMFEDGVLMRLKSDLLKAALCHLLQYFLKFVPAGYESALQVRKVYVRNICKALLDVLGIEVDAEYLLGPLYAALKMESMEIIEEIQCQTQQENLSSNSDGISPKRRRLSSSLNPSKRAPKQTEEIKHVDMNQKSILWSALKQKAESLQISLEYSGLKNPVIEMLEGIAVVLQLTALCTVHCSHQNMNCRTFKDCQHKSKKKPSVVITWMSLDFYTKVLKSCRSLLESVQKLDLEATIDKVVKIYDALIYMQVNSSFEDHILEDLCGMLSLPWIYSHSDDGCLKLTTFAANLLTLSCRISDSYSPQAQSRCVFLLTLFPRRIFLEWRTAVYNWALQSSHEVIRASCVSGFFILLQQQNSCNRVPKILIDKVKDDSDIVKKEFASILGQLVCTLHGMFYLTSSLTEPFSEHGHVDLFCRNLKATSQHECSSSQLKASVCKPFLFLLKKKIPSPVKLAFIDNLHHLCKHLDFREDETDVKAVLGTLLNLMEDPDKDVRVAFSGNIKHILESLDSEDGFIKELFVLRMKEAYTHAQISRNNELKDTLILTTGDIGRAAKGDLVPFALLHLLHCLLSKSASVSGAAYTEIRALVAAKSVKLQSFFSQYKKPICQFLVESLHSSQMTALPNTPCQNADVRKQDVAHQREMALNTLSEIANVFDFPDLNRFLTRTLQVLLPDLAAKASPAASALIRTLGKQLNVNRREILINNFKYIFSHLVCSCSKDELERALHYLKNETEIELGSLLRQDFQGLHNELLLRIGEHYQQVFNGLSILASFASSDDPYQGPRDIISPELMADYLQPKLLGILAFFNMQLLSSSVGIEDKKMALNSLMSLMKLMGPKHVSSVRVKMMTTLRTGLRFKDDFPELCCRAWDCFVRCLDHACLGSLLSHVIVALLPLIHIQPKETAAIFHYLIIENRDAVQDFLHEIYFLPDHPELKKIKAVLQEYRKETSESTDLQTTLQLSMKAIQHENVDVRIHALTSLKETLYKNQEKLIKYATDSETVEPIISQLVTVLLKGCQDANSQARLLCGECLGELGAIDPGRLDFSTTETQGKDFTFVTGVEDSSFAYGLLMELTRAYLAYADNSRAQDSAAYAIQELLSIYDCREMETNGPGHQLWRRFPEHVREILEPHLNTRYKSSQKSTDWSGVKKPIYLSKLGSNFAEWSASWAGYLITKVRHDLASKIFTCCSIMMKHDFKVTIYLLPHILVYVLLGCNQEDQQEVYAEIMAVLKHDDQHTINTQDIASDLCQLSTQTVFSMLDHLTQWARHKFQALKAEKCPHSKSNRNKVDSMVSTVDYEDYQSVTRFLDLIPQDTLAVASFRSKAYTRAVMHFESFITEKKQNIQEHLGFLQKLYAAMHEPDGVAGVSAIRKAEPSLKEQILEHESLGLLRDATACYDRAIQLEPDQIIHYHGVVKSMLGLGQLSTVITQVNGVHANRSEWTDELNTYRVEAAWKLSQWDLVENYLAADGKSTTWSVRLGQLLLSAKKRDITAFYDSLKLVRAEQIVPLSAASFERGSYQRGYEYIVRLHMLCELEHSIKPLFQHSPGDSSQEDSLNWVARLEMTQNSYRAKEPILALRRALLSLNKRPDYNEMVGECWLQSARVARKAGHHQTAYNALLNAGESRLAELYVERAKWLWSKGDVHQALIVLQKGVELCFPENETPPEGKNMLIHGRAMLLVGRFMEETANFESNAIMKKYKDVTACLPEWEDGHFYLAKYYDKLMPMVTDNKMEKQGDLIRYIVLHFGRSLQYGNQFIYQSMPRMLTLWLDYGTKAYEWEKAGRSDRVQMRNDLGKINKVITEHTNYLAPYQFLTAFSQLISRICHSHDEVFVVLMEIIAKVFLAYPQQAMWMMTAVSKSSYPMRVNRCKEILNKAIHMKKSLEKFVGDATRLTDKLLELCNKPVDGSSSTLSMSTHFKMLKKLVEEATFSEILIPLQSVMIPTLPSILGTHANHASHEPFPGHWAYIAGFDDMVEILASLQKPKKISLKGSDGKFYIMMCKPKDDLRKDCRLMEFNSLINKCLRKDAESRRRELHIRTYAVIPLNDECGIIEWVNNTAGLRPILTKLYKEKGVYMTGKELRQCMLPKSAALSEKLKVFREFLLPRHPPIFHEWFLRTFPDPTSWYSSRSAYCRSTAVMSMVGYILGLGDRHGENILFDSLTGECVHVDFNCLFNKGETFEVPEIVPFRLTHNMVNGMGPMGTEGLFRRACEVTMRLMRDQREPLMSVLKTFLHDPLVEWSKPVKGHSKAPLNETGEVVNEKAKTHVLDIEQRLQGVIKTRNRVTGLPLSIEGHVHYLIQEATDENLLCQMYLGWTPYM
Assays were carried out at 25° C. in the presence of 5 nM full-length ATR. An assay stock buffer solution was prepared containing all of the reagents listed above, with the exception of ATP and the test compound of interest. […] The plate was pre-incubated for 10 minutes at 25° C. and the reaction initiated by addition of 15 μL [γ-33P]ATP (final concentration 10 μM).
The reaction was stopped after […] by the addition of 30 μL 0.1M phosphoric acid containing 2 mM ATP. A multiscreen phosphocellulose filter 96-well plate (Millipore, Cat no. MAPHN0B50) was pretreated with 100 μL 0.2M phosphoric acid prior to the addition of 45 μL of the stopped assay mixture. […] After drying, 100 μL Optiphase ‘SuperMix’ liquid scintillation cocktail (Perkin Elmer) was added to the well prior to scintillation counting (1450 Microbeta Liquid Scintillation Counter, Wallac).
After removing mean background values for all of the data points, Ki(app) data were calculated from non-linear regression analysis of the initial rate data using the Prism software package (GraphPad Prism version 3.0cx for Macintosh, GraphPad Software, San Diego Calif., USA).
With `Cc1ccc2nc(-c3nc(-c4ccc(C(=O)N5CCCNCC5)cc4)cnc3N)[nH]c2c1` [III-1, (4-(5-amino-6-(6-methyl-1H-benzo[d]imidazol-2-yl)pyrazin-2-yl)phenyl) (1,4-diazepan-1-yl)methanone], the Ki was 0.01 to 0.1 µM.

On to `CC(C)S(=O)(=O)c1ccc(-c2cnc(N)c(-c3nnc(-c4ccc(CN(C)C)cc4)o3)n2)cc1` [IA-243, 3-[5-[4-(dimethylaminomethyl)phenyl]-1,3,4-oxadiazol-2-yl]-5-(4-isopropylsulfonylphenyl)pyrazin-2-amine], for which the Ki was ≤ 0.01 µM.

With `CNCc1ccc(-c2nnc(-c3nc(-c4ccc(S(=O)(=O)NCCO)cc4)cnc3N)o2)cc1` [IA-304, 4-[5-amino-6-[5-[4-(methylaminomethyl)phenyl]-1,3,4-oxadiazol-2-yl]pyrazin-2-yl]-N-(2-hydroxyethyl)benzenesulfonamide], the inhibitory constant (Ki) is ≤ 0.01 µM.

As to `Nc1ncc(-c2cccc3[nH]ccc23)nc1-c1nnc(-c2ccccc2)o1` [IA-59], the inhibitory constant (Ki) was in the range of 0.01 to 0.1 µM.

As to `Nc1ncc(-c2ccc(C(=O)N3CCCNCC3)cc2)nc1C(=O)Nc1n[nH]c2ccccc12` [Compound V-8], the inhibition constant (Ki) is ≤ 0.01 µM.

In the case of `CN(C)C(=O)c1ccc(-c2cnc(N)c(-c3nnc(-c4cccc(CCO)c4)o3)n2)cc1` [IA-69, 4-[5-amino-6-[5-[3-(2-hydroxyethyl)phenyl]-1,3,4-oxadiazol-2-yl]pyrazin-2-yl]-N,N-dimethyl-benzamide], the Ki was 0.01 to 0.1 µM.

For the molecule `Nc1ncc(-c2cccnc2)nc1C(=O)Nc1cccc(F)c1` [Compound I-103, 3-amino-N-(3-fluorophenyl)-6-(pyridin-3-yl)pyrazine-2-carboxamide], the inhibition constant (Ki) was in the range of 0.01 to 0.1 µM.

As to `CN(C)C(=O)c1ccc(-c2cnc(N)c(-c3nnc(-c4cccc(CNC(=O)OC(C)(C)C)c4)o3)n2)cc1` [IA-73, tert-butyl N-[[3-[5-[3-amino-6-[4-(dimethylcarbamoyl)phenyl]pyrazin-2-yl]-1,3,4-oxadiazol-2-yl]phenyl]methyl]carbamate], the inhibition constant Ki is ≤ 0.01 µM.

Regarding `Nc1ncc(-c2ccc(C(=O)N3CCC(N4CCCC4)CC3)cc2)nc1C(=O)Nc1ccccc1` [Compound I-71, 3-amino-N-phenyl-6-(4-(4-(pyrrolidin-1-yl)piperidine-1-carbonyl)phenyl) pyrazine-2-carboxamide], the Ki fell in the range of 0.01 to 0.1 µM.

As for `CN(C)CCNc1nccc(-c2cnc(N)c(-c3nnc(-c4ccccc4)o3)n2)c1C#N` [IA-209, 4-[5-amino-6-(5-phenyl-1,3,4-oxadiazol-2-yl)pyrazin-2-yl]-2-(2-dimethylaminoethylamino)pyridine-3-carbonitrile], the inhibition constant Ki fell in the range of 0.01 to 0.1 µM.

With `CC(C)S(=O)(=O)c1ccc(-c2cnc(N)c(-c3nnc(-c4ccccc4)o3)n2)cc1` [IA-116, 5-(4-isopropylsulfonylphenyl)-3-(5-phenyl-1,3,4-oxadiazol-2-yl)pyrazin-2-amine], the Ki was ≤ 0.01 µM.

With `N#Cc1cc(C(=O)N2CCCNCC2)ccc1-c1cnc(N)c(-c2nnc(-c3ccccc3)s2)n1` [IVA-2, 2-[5-amino-6-(5-phenyl-1,3,4-thiadiazol-2-yl)pyrazin-2-yl]-5-(1,4-diazepane-1-carbonyl)benzonitrile], the Ki was ≤ 0.01 µM.

As to `COc1ccccc1NC(=O)c1nc(-c2ccco2)cnc1N` [Compound I-30, 3-amino-6-(furan-2-yl)-N-(2-methoxyphenyl)pyrazine-2-carboxamide], the inhibition constant Ki fell in the range of 0.01 to 0.1 µM.

As for `COc1ccc(-c2nnc(-c3nc(-c4ccc(C(=O)N(C)C)cc4)cnc3N)o2)cc1` [IA-157, 4-[5-amino-6-[5-(4-methoxyphenyl)-1,3,4-oxadiazol-2-yl]pyrazin-2-yl]-N,N-dimethyl-benzamide], the Ki lay within 0.01 to 0.1 µM.

On to `COc1ccccc1NC(=O)c1nc(-c2ccc3[nH]ccc3c2)cnc1N` [Compound I-29, 3-amino-6-(1H-indol-5-yl)-N-(2-methoxyphenyl)pyrazine-2-carboxamide], for which the Ki lay within 0.01 to 0.1 µM.

On to `CNCc1ccc(-c2nnc(-c3nc(-c4ccc(S(=O)(=O)C(C)C)cc4)cnc3N)o2)cc1F` [IA-336, 3-[5-[3-fluoro-4-(methylaminomethyl)phenyl]-1,3,4-oxadiazol-2-yl]-5-(4-isopropylsulfonylphenyl)pyrazin-2-amine], for which the Ki was ≤ 0.01 µM.

Turning to `Cc1ccccc1-c1nnc(-c2nc(-c3ccc(C(=O)N(C)C)cc3)cnc2N)o1` [IA-71, 4-[5-amino-6-[5-(o-tolyl)-1,3,4-oxadiazol-2-yl]pyrazin-2-yl]-N,N-dimethyl-benzamide], the inhibition constant Ki is ≤ 0.01 µM.

On to `CC(C)S(=O)(=O)c1ccc(-c2cnc(N)c(-c3nnc(N4CC(N)C4)o3)n2)cc1` [IA-111, 3-[5-(3-aminoazetidin-1-yl)-1,3,4-oxadiazol-2-yl]-5-(4-isopropylsulfonylphenyl)pyrazin-2-amine], for which the inhibition constant Ki is 0.1 to 5 µM.

Consider `CNCc1ccc(-c2cc(-c3nc(-c4ccc(S(=O)(=O)C5CCOC5)cc4)cnc3N)on2)c(F)c1` (stereo not drawn) [IIA-16, 3-[3-[2-fluoro-4-(methylaminomethyl)phenyl]isoxazol-5-yl]-5-(4-tetrahydrofuran-3-ylsulfonylphenyl)pyrazin-2-amine], for which the Ki is ≤ 0.01 µM.

For `NCC[S+]([O-])c1ccccc1-c1cnc(N)c(-c2nnc(-c3ccccc3)o2)n1` (stereo not drawn) [IA-261, 5-(2-(2-aminoethylsulfinyl)phenyl)-3-(5-phenyl-1,3,4-oxadiazol-2-yl)pyrazin-2-amine], the inhibition constant (Ki) was in the range of 0.01 to 0.1 µM.

Regarding `CN(C)C(=O)c1ccc(-c2cnc(N)c(C(=O)Nc3ccccc3)n2)cc1` [Compound I-24, 3-amino-6-(4-(dimethylcarbamoyl)phenyl)-N-phenylpyrazine-2-carboxamide], the Ki is 0.01 to 0.1 µM.

As to `CN(C)C(=O)c1ccc(-c2cnc(N)c(-c3nnc(N(C)c4ccccc4)o3)n2)cc1` [IA-250, 4-[5-amino-6-[5-(N-methylanilino)-1,3,4-oxadiazol-2-yl]pyrazin-2-yl]-N,N-dimethyl-benzamide], the Ki is 0.1 to 5 µM.

For the molecule `CCNCc1ccc(-c2cc(-c3nc(-c4ccc(S(=O)(=O)C(C)C)cc4)cnc3N)on2)cc1` [IIA-10, 3-[3-[4-(ethylaminomethyl)phenyl]isoxazol-5-yl]-5-(4-isopropylsulfonylphenyl)pyrazin-2-amine], the Ki was ≤ 0.01 µM.

Regarding `CC(C)S(=O)(=O)c1ccc(-c2cnc(N)c(-c3nnc(-c4ccc(C(N)C(F)(F)F)cc4)o3)n2)cc1` (stereo in doubt) [IA-325, 3-[5-[4-[(1S)-1-amino-2,2,2-trifluoro-ethyl]phenyl]-1,3,4-oxadiazol-2-yl]-5-(4-isopropylsulfonylphenyl)pyrazin-2-amine], the Ki lay within 0.01 to 0.1 µM.

As to `Cc1cccc(-c2cnc(N)c(-c3nnc(-c4ccccc4)o3)n2)c1` [IA-182, 5-(m-tolyl)-3-(5-phenyl-1,3,4-oxadiazol-2-yl)pyrazin-2-amine], the Ki was in the range of 0.1 to 5 µM.

Turning to `CCc1ccccc1-c1cnc(N)c(-c2nnc(-c3ccccc3)o2)n1` [IA-57], the Ki is 0.1 to 5 µM.

Regarding `Nc1ncc(-c2ccc(C(=O)NCCCO)cc2)nc1-c1nc2ccccc2[nH]1` [Compound I-128, 4-(5-amino-6-(1H-benzo[d]imidazol-2-yl)pyrazin-2-yl)-N-(3-hydroxypropyl)benzamide], the inhibition constant Ki is 0.01 to 0.1 µM.

With `N#Cc1cnccc1-c1cnc(N)c(-c2nnc(-c3ccccc3)o2)n1` [IA-35], the Ki is ≤ 0.01 µM.

As to `Nc1ncc(-c2cccnc2)nc1C(=O)Nc1cccc2cc[nH]c12` [Compound I-83, 3-amino-N-(1H-indol-7-yl)-6-(pyridin-3-yl)pyrazine-2-carboxamide], the Ki lay within 0.1 to 5 µM.

In the case of `CC(C)S(=O)(=O)c1ccc(-c2cnc(N)c(-c3nnc(-c4ccc(CN)s4)o3)n2)cc1` [IA-173, 3-[5-[5-(aminomethyl)-2-thienyl]-1,3,4-oxadiazol-2-yl]-5-(4-isopropylsulfonylphenyl)pyrazin-2-amine], the Ki is ≤ 0.01 µM.

Take `CS(=O)(=O)c1ccc(-c2cnc(N)c(C(=O)Nc3ccccn3)n2)cc1` [VII-6]: the inhibitory constant (Ki) was 0.01 to 0.1 µM.

As for `CN(C)C(=O)c1ccc(-c2cnc(N)c(-c3nnc(-c4ccccc4-c4ccsc4)o3)n2)cc1` [IA-127, 4-[5-amino-6-[5-[2-(3-thienyl)phenyl]-1,3,4-oxadiazol-2-yl]pyrazin-2-yl]-N,N-dimethyl-benzamide], the Ki fell in the range of 0.01 to 0.1 µM.

For the molecule `N#Cc1cc(C(=O)N2CCCNCC2)ccc1-c1cnc(N)c(C(=O)Nc2nc3ccccc3[nH]2)n1` [Compound V-2], the Ki was ≤ 0.01 µM.

As to `CC(C)S(=O)(=O)c1ccc(-c2cnc(N)c(-c3nnc(N4CCCC(CN)C4)o3)n2)cc1` (stereo not drawn) [IA-227, 3-[5-[3-(aminomethyl)-1-piperidyl]-1,3,4-oxadiazol-2-yl]-5-(4-isopropylsulfonylphenyl)pyrazin-2-amine], the inhibition constant Ki was 0.1 to 5 µM.

For `CN(C)C1CCN(C(=O)c2ccc(-c3cnc(N)c(C(=O)Nc4ccccc4)n3)cc2)CC1` [Compound I-80, 3-amino-6-(4-(4-(dimethylamino)piperidine-1-carbonyl)phenyl)-N-phenylpyrazine-2-carboxamide], the Ki lay in the range of 0.01 to 0.1 µM.

As for `Nc1ncc(-c2cccnc2)nc1C(=O)Nc1ccccn1` [Compound I-97, 3-amino-N-(pyridin-2-yl)-6-(pyridin-3-yl)pyrazine-2-carboxamide], the Ki was 0.1 to 5 µM.
